Assay results: patent US20070254930A1, “Oral Preparation Having Improved Bioavailability” (DONG WHA PHARM. IND. CO., LTD., priority 2004, published 2007)

Experiments:
[1] = Gelation experiment: viscosity of aqueous solutions; assay type: physicochemical; conditions: for Viscosity: Brookfield DV-II+, 10° C. ± 0.3° C., spindle S 51
Method: The following test was carried out to evaluate the degree of gelation depending on the concentration of 2 methanesulfonic acid salt of the compound of Chemical Formula 1 according to the present invention.
200 mg of 2 methanesulfonic acid salt of the compound of Chemical Formula 1 was dissolved in 10 mL of water (20 mg/mL). The solution was diluted with water to give 20, 10, 5, and 2.5 mg/mL. Viscosity of these diluted solutions was measured according to the following test conditions described in Table 1, and also the results for the test are shown in Table 1.

[2] = pH-dependent water solubility; assay type: physicochemical; conditions: pH about pH 5 or more

| SMILES | Viscosity ([1]; 2.5 mg/ml in water) [cP] | Viscosity ([1]; 5 mg/ml in water) [cP] | Viscosity ([1]; 10 mg/ml in water) [cP] | Viscosity ([1]; 20 mg/ml in water) [cP] | gelation property in aqueous solution (in words) ([1]; aqueous solution) | solubility in aqueous condition (in words) [2] |
| --- | --- | --- | --- | --- | --- | --- |
| CS(=O)(=O)O.CS(=O)(=O)O.Cc1nc(-c2ccc(OCCCCCOc3ccc(C(=N)NO)cc3)cc2)c(C(C)C)s1 [N-hydroxy-4-{5-[4-(5-isopropyl-2-methyl-1,3-thiazol-4-yl)phenoxy]pentoxy}-benzamidine 2 methanesulfonic acid salt] | 6.34 | 11.9 | 20.0 | 78.9 | high gelation property | – |
| Cc1nc(-c2ccc(OCCCCCOc3ccc(C(=N)NO)cc3)cc2)c(C(C)C)s1 [compound of Chemical Formula 1, N-hydroxy-4-{5-[4-(5-isopropyl-2-methyl-1,3-thiazol-4-yl)phenoxy]pentoxy}-benzamidine] | – | – | – | – | – | practically insoluble |
